# In paper PMC4501119, “Cholestenoic acid, an endogenous cholesterol metabolite, is a potent γ-secretase modulator” (Molecular Neurodegeneration, 2015):
# How the values were obtained:
# [1] = system: Aβ peptides in CHO-2B7 cells; test: IP/MS (MALDI-TOF) Aβ profile of CHO-2B7 conditioned media; format: cell-based, Chinese hamster; conditions: 3 μM, vs DMSO control
# Description: Chinese hamster ovary (CHO) cells stably overexpressing APP695 (CHO-2B7 cells) were grown in Ham’s F-12 medium (Life Technologies) supplemented with 10 % fetal bovine serum and 100 units/ml of penicillin and 100 μg/ml streptomycin. Cells were grown at 37 °C in a humidified atmosphere containing 5 % CO2 in tissue culture plates (Costar). The cells were harvested at confluence and then utilized for biochemical analyses. Compounds were dissolved in dimethyl sulfoxide (DMSO) and screened in CHO-2B7 cells. The cells were incubated for 16 h in the presence of the compound diluted into OptiMEM-reduced serum medium (Life Technologies, Carlsbad, CA, USA) containing 1 % fetal bovine serum.
# Conditioned media from the CHO-2B7 cells and the samples prepared from in vitro γ-secretase studies were used to analyze Aβ and AICD profiles using matrix-assisted laser desorption/ionization time of flight (MALDI-TOF) mass spectrometry analysis. The secreted Aβ peptides were analyzed as previously described with the following modifications. Briefly, the Aβ peptides were immunoprecipitated using Ab5 recognizing the Aβ1-16 epitope and sheep anti-mouse IgG magnetic Dynabeads (Life Technologies, catalog no. 11201D) and the AICD fragments were captured using anti-Flag M2 magnetic beads (Sigma). […] Samples were analyzed using a Bruker Microflex LRF-MALDI-TOF mass spectrometer.
# [2] = biological target: T1, γ-secretase (Homo sapiens, UniProt P49768); test: In vitro γ-secretase assay with recombinant C100Flag and CHO S-1 membrane, Aβ and AICD spectra by MALDI-TOF; format: biochemical; conditions: 20 μM
# T1 construct: The membrane derived from the H4 neuroglioma cells overexpressing APP695wt were prepared by carbonate extraction; endogenous in cells; host or cells: H4 neuroglioma cells overexpressing APP695wt (membranes, carbonate extraction)
# Description: Broken cell assays were performed with slight modifications from the previous studies. The membrane derived from the H4 neuroglioma cells overexpressing APP695wt were prepared by carbonate extraction and incubated at 37 °C for 2 h with CA at various concentrations. Aβ levels were quantified by sandwich ELISAs. For Aβ and AICD spectra, the recombinant C100Flag proteins were overexpressed and purified from Escherichia coli BL21 using a HiTrap Q-column (GE Life Science, Little Chalfont, U.K.). The membrane containing γ-secretase was isolated from the CHO S-1 cell line using sodium carbonate (100 mM, pH 11.0). For the in vitro γ-secretase assay, C100Flag recombinant protein at 25 μM was incubated with the membrane (100 μg/mL) in the presence of CA (20 μM) and DMSO in 150 mM sodium citrate buffer (pH 6.8) containing complete protease inhibitor (Roche, Indianapolis, IN) for 2 h at 37 °C.
# Conditioned media from the CHO-2B7 cells and the samples prepared from in vitro γ-secretase studies were used to analyze Aβ and AICD profiles using matrix-assisted laser desorption/ionization time of flight (MALDI-TOF) mass spectrometry analysis. The secreted Aβ peptides were analyzed as previously described with the following modifications. […] Samples were analyzed using a Bruker Microflex LRF-MALDI-TOF mass spectrometer.
# [3] = system: endogenous mouse Aβ (mAβ) in primary neuron-glia cultures; test: Primary mixed neuron-glia culture, endogenous mouse Aβ ELISA; format: cell-based
# Description: Primary mixed neuron-glia cultures were prepared from postnatal day 0 (P0) C3HBL/6 mouse brains (Harlan Labs). Cerebral cortices were dissected from P0 mouse brains and were dissociated in 2 mg/ml papain (Worthington) and 50 μg/mL DNAse I (Sigma) at 37 °C for 20 min. They were then washed three times in sterile Hank’s balanced salt solution (HBSS) to inactivate the papain and switched to 5 % fetal bovine serume (HyClone) in Neurobasal-A growth media (Gibco), which includes 0.5 mM L-glutamine (Gibco), 0.5 mM GlutaMax (Life Technologies), 0.01 % antibiotic-antimycotic (Gibco), and 0.02 % SM1 supplement (Stemcell). The tissue mixture was then triturated three times using a 5 mL pipette followed by a Pasteur pipette, and strained through a 70 μm cell strainer. The cell mixture was then centrifuged at 200xg for 3 min, and re-suspended in fresh Neurobasal-A media. They were then plated onto poly-D-lysine coated 96well plates at 100,000 cells/well. Cells were maintained in the Neurobasal-A growth media mentioned above without fetal bovine serum (FBS) at 37 °C in a humidified 5 % CO2 chamber.
# Monoclonal antibodies to Aβ were generated by the Mayo Clinic Immunology Core facilities (Jacksonville, FL, USA). Ab5 recognizes an epitope in the amino terminus of Aβ (Aβ1-16), recognizes both monomeric and aggregated Aβ, and is human specific. […] Ab 2.1.3 was raised against Aβ35-42 and is specific for Aβx-42. […] For cell-based screens, Aβ was captured from conditioned medium with either Ab5, Ab38, Ab13.1.1, or Ab2.1.3 (coated at 10-50 μg/ml in EC buffer: 5 mM NaH2PO4-H2O, 20 mM Na2HPO4, 400 mM NaCl, 2.5 mM EDTA-full name, 151.5 μM BSA, 813 μM CHAPS, and 7.7 mM NaN3) on Immulon 4HBX Flat-Bottom Microfilter 96-well plates (Thermo Scientific, Waltham, MA, USA). Total Aβ level was determined by capture with Ab5 and detected with horseradish peroxidase (HRP)-conjugated 4G8 (a monoclonal antibody against Aβ17-24; Covance, Waltham, MA, USA) with the other Aβ peptides detected with HRP-conjugated Ab5. For the cell-free assay and measuring mouse endogenous Aβ, HRP-conjugated 4G8 was used as the secondary detection antibody. Aβ standards (Bachem, King of Prussia, PA, USA) were prepared by dissolving in hexafluoroisopropanol (HFIP) at 1 mg/ml with sonication, dried under nitrogen, resuspended at 2 mg/ml HFIP, sonicated again and dried under nitrogen. The resulting Aβ was resuspended in 0.01 % ammonium hydroxide, portioned into aliquots in EC buffer, and frozen at −80 °C. Following these steps, the Aβ is monomeric, as determined by size-exclusion chromatography.
# [4] = Tolerability of IP doses in mice; format: in vivo, mouse; conditions: up to the highest dose 100 mg/kg
# Description: 25(R)-CA powder was initially dissolved in DMSO (<4.5 % in the final mixture) and then combined with polyethylene glycol (15)-hydroxystearate (Solutol), ethanol, and water at a ratio of (15:10:75). One molar equivalent of sodium hydroxide was added to the mixture. We performed CA intraperitoneal (IP) injections to wild-type mice (C57BL/6 or CF-1). The mice were injected with 25(R)-CA on the right side of the abdomen. The injections have been performed with various time points (30 min, 1 h, 2 h, and 3 h) and with multiple doses (30 mg per kg (mg/kg), 60 mg/kg, 75 mg/kg and 100 mg/kg). The number of each cohort is 6–8. We used 30 mg/kg of CA for the time-course experiments, and for the dose–response experiments the end-point was set at 30 min. The brains and serum are harvested and frozen for brain Aβ extraction.
# [5] = system: primary mouse motor neuron; design: method as in PMID 25271621; conditions: cited from earlier work
smiles,measurement,setting,value
"CC(CCC[C@@H](C)C(=O)O)[C@H]1CCC2C3CC=C4C[C@@H](O)CC[C@]4(C)C3CC[C@@]21C (stereo partly drawn) [Cmpd 2a, 25(R)-cholestenoic acid]",Aβ spectra by mass spectrometry,[1],increased Aβ38 peak and decreased Aβ42 peak with no significant changes in Aβ40 peak
same,ε-site utilizations (AICD49-99 and AICD50-99),[2]; vs DMSO control,did not affect
same,Aβ spectra (MALDI-TOF),[2]; vs DMSO treated control,decrease Aβ42 peak and increase Aβ38 peak
same,decrease of mAβ42 production,[3]; 3 μM,~ 60%
same,Aβ42:Aβ38 ratio,[3]; 3 μM and 10 μM,significant decrease
same,Aβ38 production,[3]; 10 μM,increased
same,decrease of mAβ42 production,[3]; 10 μM,~ 75%
same,tolerability,[4],well tolerated
same,toxicity to primary mouse motor neuron in cultures,[5],toxic
